Assays:
[1] = tested on: ACC deaminase from bacterial strain PR-1 (B27813, Puerto Rico soil); details: read-out: Km (ACC), crude desalted extract, Tris pH 8.0, 30° C., double reciprocal plot
Method: (§1) The Km for the ACC deaminases isolated from the various soil sources was determined using crude, desalted extracts. Individual strains of bacteria were grown in liquid media containing 4 g KH2 PO4, 6.5 g K2 HPO4, 1 g MgSO4.7H2 O, 2 g glucose, 1 mg FeSO4, 1 mg MnCl2, 1 mg ZnSO4, 1 mg CuSO4, 1 mg CaCl2, and 300 mg ACC, all in 1 liter H2 O. Cells were grown for 2 to 3 days at 30° C. Cells were pelleted by centrifugation and resuspended in extraction buffer containing 0.1M phosphate, pH 7.5, 1 mM EDTA, 0.1% β-mercaptoethanol. The cells were broken with a French Press, 1000 psi, and the cell debris was pelleted by centrifugation. […] Glycerol was added to the extract (20% v/v) and enzyme solutions were stored at -20° C. ACC deaminase enzyme assays were conducted as described in the Examples to follow. The assay mixture contained 100 μl of 0.2M Tris buffer, pH 8.0, 30 μl of 500 mM ACC solution, and enzyme solution to make a final volume of 200 μl. Reactions were run for 10 minutes at 30° C. The reaction was stopped with 1.8 ml of 2N HCl. After adding 300 μl 0.1% 2,4-dinitrophenylhydrazine, the mixture was incubated for 15 minutes at 30° C. The solution was then made basic by adding 2 ml of 2N NaOH. The optical density of the resulting brownish-red solution was determined at 540 nm with a spectrophotometer.
(§2) The kinetic value, Km, for ACC deaminase was determined against ACC as the enzyme substrate for each of the ACC deaminases isolated. […] An estimated Km was determined for each extracted enzyme with ACC at sub-saturating concentrations. […] Actual Km values were then determined for each extract using ACC concentrations between 0.2× and 2× of the estimated Km, or ACC concentrations between 1 and 10 mM ACC. Km values were calculated from double reciprocal plots, plotting the reciprocal of the substrate concentration on the x-axis and the reciprocal of the velocity (α-ketobutyrate formed) on the y-axis.

[2] = tested on: ACC deaminase from bacterial strain 401 (B27457, St. Charles soil, ACC enriched); details: read-out: Km (ACC), crude desalted extract, Tris pH 8.0, 30° C., double reciprocal plot
Method: as §1, §2

[3] = tested on: ACC deaminase from bacterial strain 391 (B27447, Malaysia soil); details: read-out: Km (ACC), crude desalted extract, Tris pH 8.0, 30° C., double reciprocal plot
Method: as §1, §2

[4] = tested on: ACC deaminase from bacterial strain 392 (B27448, Peru soil); details: read-out: Km (ACC), crude desalted extract, Tris pH 8.0, 30° C., double reciprocal plot
Method: as §1, §2

[5] = tested on: ACC deaminase from bacterial strain 393 (B27449, St. Charles soil); details: read-out: Km (ACC), crude desalted extract, Tris pH 8.0, 30° C., double reciprocal plot
Method: as §1, §2

[6] = tested on: ACC deaminase from bacterial strain T44 (B27817, Tanzania soil); details: read-out: Km (ACC), crude desalted extract, Tris pH 8.0, 30° C., double reciprocal plot
Method: as §1, §2

[7] = tested on: ACC deaminase from bacterial strain 388 (B27444, St. Charles soil, ACC enriched); details: read-out: Km (ACC), crude desalted extract, Tris pH 8.0, 30° C., double reciprocal plot
Method: as §1, §2

[8] = tested on: ACC deaminase from Pseudomonas isolate 3F2 (gene SEQ ID NO:15, amino acid SEQ ID NO:16); details: read-out: Km (ACC); strain 3F2; crude desalted extract, Tris pH 8.0, 30° C., double reciprocal plot
Method: as §1, §2

With `NC1(C(=O)O)CC1` [ACC, 1-aminocyclopropane-1-carboxylic acid] the Km [1] was 4.1 mM, the Km [2] was 7.8 mM and the Km [3] was 17.4 mM. The Km [4] was 7.1 mM, the Km [5] was 5.9 mM and the Km [6] was 11.8 mM. The Km [7] was 8.6 mM and the Km [8] was 5.8 mM.

Source: patent publication US5512466A, “Control of fruit ripening and senescence in plants” (Monsanto Company, priority 1991, dated 1996)
